In paper PMC9144829, “Histone Deacetylase Inhibitory Activity and Antiproliferative Potential of New [6]-Shogaol Derivatives” (Molecules, 2022):
Like-named read-outs stand apart in the source and are kept apart here. Blank lines part the entries; values can stand above or below the compound they belong to.

Tests used:
[1] = system: HDAC enzymes (HeLa nuclear extract, mixed-HDAC isoforms); experiment: Fluor-de-Lys HDAC activity assay kit, HeLa nuclear extract as source of HDAC enzymes; assay type: biochemical, human; conditions: compounds at 100 µM
Description: The in vitro HDAC inhibitions of the obtained compounds were carried out with the assay kit containing mixed-HDAC isoforms. […] Therefore, the results were not fully related. However, compounds with good binding affinities should have the potential to be specific HDAC inhibitors for each isoform.
The semi-synthetic derivatives were evaluated for their ability to inhibit HDAC enzymes. Inhibition of HDAC activity in vitro was assessed using the Fluor-de-Lys HDAC activity assay kit (Biomol, Enzo Life Sciences International, Inc., Farmingdale, NY, USA). The HeLa nuclear extract provided with the kit was used as a source of HDAC enzymes for the in vitro study. TSA was used as the positive control. The HeLa nuclear extract, substrate, buffer and inhibitors were incubated. Deacetylation of the substrate was performed next by adding a developer to generate a fluorophore. The spectra Max Gemini XPS microplate spectrofluorometer (Molecular Devices, San Jose, CA, USA) was used to measure fluorescence signal with excitation at 360 nm and emission at 460 nm. A decrease in fluorescence signal indicated an inhibition of HDAC activity. Trichostatin A (TSA) was used as a positive control. All experiments were carried out in triplicate.

Vero cells = experiment: MTT assay, non-cancer Vero cells; assay type: cell-based; conditions: Chlorocebus sabaeus, read-out: IC50 Values (Mean ± SD; n = 3)
Description: (§1) The MTT reduction assay was performed with non-cancer (Vero), human cervical cancer (HeLa), human colon cancer (HCT116), human breast adenocarcinoma cancer (MCF-7), and cholangiocarcinoma (H-69 […], KKU-100 and KKU-M213B) cell lines according to the previously described method. Briefly, cells were seeded in 96-well plates. The next day, cells were exposed to the selected compounds at various concentrations and incubated for 24, 48 and 72 h. After incubation, the culture medium was exchanged with 110 µL of MTT (0.5 mg/mL in PBS medium) and further incubated for 2 h. The amount of MTT formazan product was determined after dissolving in DMSO by measuring its absorbance with a microplate reader (Bio-Rad Laboratories, Hercules, CA, USA) at a test wavelength of 550 nm and a reference wavelength of 655 nm. The cell viability was expressed as a percentage of the viable cells of control culture conditions, and the IC50 values of each group were calculated.

[2] = system: human cervical cancer (HeLa) cells; experiment: MTT assay, HeLa cells; assay type: cell-based; conditions: Homo sapiens, read-out: IC50 Values (Mean ± SD; n = 3), HeLa cells
Description: as §1

[3] = system: human colon cancer (HCT116) cells; experiment: MTT assay, HCT116 cells; assay type: cell-based; conditions: Homo sapiens, HCT-116, read-out: IC50 Values (Mean ± SD; n = 3)
Description: as §1

[4] = system: human breast adenocarcinoma cancer (MCF-7) cells; experiment: MTT assay, MCF-7 cells; assay type: cell-based; conditions: Homo sapiens, MCF7, read-out: IC50 Values (Mean ± SD; n = 3)
Description: as §1

H-69 cells = experiment: MTT assay, H-69 cells; assay type: cell-based; conditions: Homo sapiens, NCI-H69, read-out: IC50 Values (Mean ± SD; n = 3)
Description: as §1

[5] = system: cholangiocarcinoma KKU-100 cells; experiment: MTT assay, KKU-100 cells; assay type: cell-based, human; conditions: Homo sapiens, KKU100, read-out: IC50 Values (Mean ± SD; n = 3)
Description: as §1

[6] = system: cholangiocarcinoma KKU-M213B cells; experiment: MTT assay, KKU-M213B cells; assay type: cell-based, human; conditions: Homo sapiens, read-out: IC50 Values (Mean ± SD; n = 3)
Description: as §1

- %HDAC Inhibition [1]: 73%
Compound: CCCCC/C=C/C(CCc1ccc(O)c(OC)c1)=N\N [Compound 4a, 4-((3Z,4E)-3-Hydrazonodec-4-en-1-yl)-2-methoxyphenol]

- %HDAC Inhibition [1]: 73%
Compound: CCCCC/C=C/C(CCc1ccc(O)c(OC)c1)=N\NC1=NCC=N1 [Compound 4e, 4-((3Z,4E)-3-(2-(4H-Imidazol-2-yl)hydrazono)dec-4-en-1-yl)-2-methoxyphenol]

- %HDAC Inhibition [1]: 85%
- IC50 ([2]; 24 h): 26.8 ± 0.62 µM
- IC50 ([2]; 48 h): 11.6 ± 0.6 µM
- IC50 ([2]; 72 h): 8.09 ± 0.03 µM
- IC50 ([3]; 24 h): 42.7 ± 2.23 µM
- IC50 ([3]; 48 h): 10.2 ± 0.43 µM
- IC50 ([3]; 72 h): 9.65 ± 0.17 µM
- IC50 ([4]; 24 h): 27.9 ± 0.86 µM
- IC50 ([4]; 48 h): 13.8 ± 0.56 µM
- IC50 ([4]; 72 h): 11.6 ± 0.44 µM
Compound: CCCCCC1CC(CCc2ccc(O)c(OC)c2)=NN1c1ccc([N+](=O)[O-])cc1 (centres unmarked) [Compound 5j, 2-methoxy-4-(2-(1-(4-nitrophenyl)-5-pentyl-4,5-dihydro-1H-pyrazol-3-yl)ethyl)phe nol]
- IC50 (Vero cells; 24 h): 41.6 ± 2.99 µM
- IC50 (Vero cells; 48 h): 32.2 ± 1.31 µM
- IC50 (Vero cells; 72 h): 26.1 ± 0.47 µM
- IC50 (H-69 cells; 24 h): 44.1 ± 0.89 µM
- IC50 (H-69 cells; 48 h): 34.6 ± 0.41 µM
- IC50 (H-69 cells; 72 h): 26.4 ± 0.43 µM
- IC50 ([5]; 24 h): 27.2 ± 0.59 µM
- IC50 ([5]; 48 h): 22.4 ± 0.65 µM
- IC50 ([5]; 72 h): 17.45 ± 0.14 µM
- IC50 ([6]; 24 h): 23.9 ± 0.85 µM
- IC50 ([6]; 48 h): 19.3 ± 0.9 µM
- IC50 ([6]; 72 h): 13.8 ± 0.16 µM

- %HDAC Inhibition [1]: 68%
Compound: CCCCCC1CC(CCc2ccc(O)c(OC)c2)=NN1c1ccc(Cl)cc1 (centres unmarked) [Compound 5h, 4-(2-(1-(4-chlorophenyl)-5-pentyl-4,5-dihydro-1H-pyrazol-3-yl)ethyl)-2-methoxyphenol]

- %HDAC Inhibition [1]: 73%
Compound: CCCCC/C=C/C(CCc1ccc(O)c(OC)c1)=N\Nc1ccc(C(=O)O)cc1 [Compound 4b, 4-(2-((3Z,4E)-1-(4-Hydroxy-3-methoxyphenyl)dec-4-en-3-ylidene)hydrazinyl)benzo-ic acid]

- %HDAC Inhibition [1]: 63%
Compound: CCCCCC1CC(CCc2ccc(O)c(OC)c2)=Nc2ccccc2N1 (centres unmarked) [Compound 7, 2-Methoxy-4-(2-(2-pentyl-2,3-dihydro-1H-benzo[b][1,4]diazepin-4-yl)ethyl)phenol]

- %HDAC Inhibition [1]: 77%
Compound: CCCCCC1CC(CCc2ccc(O)c(OC)c2)=NN1c1cccc([N+](=O)[O-])c1 (centres unmarked) [Compound 5i, 2-methoxy-4-(2-(1-(3-nitrophenyl)-5-pentyl-4,5-dihydro-1H-pyrazol-3-yl)ethyl)phe nol]

Compound: CC(/C=C/C(=O)NO)=C\[C@@H](C)C(=O)c1ccc(N(C)C)cc1 [TSA, Trichostatin A, reference compound]
- %HDAC Inhibition [1]: 92%

- %HDAC Inhibition [1]: 54%
Compound: 10-(4-Hydroxy-3-methoxyphenyl)-6-((2-mercaptophenyl)amino)decan-8-one [Compound 6a]

- %HDAC Inhibition [1]: 54%
Compound: CCCCCC1CC(CCc2ccc(O)c(OC)c2)=NN1c1ccccc1F (centres unmarked) [Compound 5e, 4-(2-(1-(2-fluorophenyl)-5-pentyl-4,5-dihydro-1H-pyrazol-3-yl)ethyl)-2-methoxyphenol]

- %HDAC Inhibition [1]: 74%
Compound: CCCCCC1CC(CCc2ccc(O)c(OC)c2)=NN1c1ccccc1 (centres unmarked) [Compound 5a, 2-methoxy-4-(2-(5-pentyl-1-phenyl-4,5-dihydro-1H-pyrazol-3-yl)ethyl)phenol]
